Experimental data: ChEMBL document CHEMBL6074685, “Design, synthesis and biological evaluation of novel diaryl-substituted fused nitrogen heterocycles as tubulin polymerization inhibitors to overcome multidrug resistance in vitro and in vivo” (Eur J Med Chem, 2025)
pIC50: −log10 of the molar value. Values after ≈ are worked out from the molar mass of the structure shown. Active and inactive are the calls of the source. No cut-off for these calls is given here.

Assays:
[1] = Toxicity in BALB/c mouse implanted with human A549/T cell assessed as RBC count at 30 mg/kg, ip administered every 2 days and measured after 2 weeks (reference value: 7.92 10^12/L); format: organism-based; conditions: in vivo, 336 h
[2] = Toxicity in BALB/c mouse implanted with human A549/T cell assessed as Plate-letocrit at 30 mg/kg, ip administered every 2 days and measured after 2 weeks (reference value: 0.549%); format: organism-based; conditions: in vivo, 336 h
A549 [3] = assay: Induction of apoptosis in human A549 cells at 50 nM incubated for 48 hrs by V-FITC/PI staining based flow cytometry analysis relative to control; format: functional
A549 [4] = assay: Effect on p-gp expression in human A549 cells by immunoblotting analysis; format: functional, cell-based
[5] = Toxicity in BALB/c mouse implanted with human A549/T cell assessed as mean platelet volume at 15 mg/kg, ip administered every 2 days and measured after 2 weeks (reference value: 10.1 fL); format: organism-based; conditions: in vivo, 336 h
[6] = Toxicity in BALB/c mouse implanted with human A549/T cell assessed as red blood cell distribution width-cell volume at 15 mg/kg, ip administered every 2 days and measured after 2 weeks (reference value: 25fL); format: organism-based; conditions: in vivo, 336 h
[7] = Toxicity in BALB/c mouse implanted with human A549/T cell assessed as red blood cell distribution width-cell volume at 30 mg/kg, ip administered every 2 days and measured after 2 weeks (reference value: 25fL); format: organism-based; conditions: in vivo, 336 h
[8] = Cytotoxicity against human MCF-10A cells assessed as inhibition of cell growth at 10 nM incubated for 48 hrs by MTT assay relative to control; format: toxicity, cell-based
[9] = Toxicity in BALB/c mouse implanted with human A549/T cell assessed as monocyte count at 15 mg/kg, ip administered every 2 days and measured after 2 weeks (reference value: 30.6 %); format: organism-based; conditions: in vivo, 336 h
A549/TR [10] = assay: Effect on p-gp expression in human A549/T cell by immunoblotting analysis; format: functional, cell-based
NCI-H1299 = assay: Antiproliferative activity against human NCI-H1299 cells assessed as cell growth inhibition incubated for 48 hrs by MTT assay; format: functional, cell-based; conditions: NCI-H1299, 48 h
[11] = Resistance index, ratio of IC50 for human A549/T cells to IC50 for human A549 cells; format: functional
HCC827 = assay: Antiproliferative activity against human HCC827 cells assessed as cell growth inhibition incubated for 48 hrs by MTT assay; format: functional, cell-based; conditions: HCC827, 48 h
[12] = Toxicity in BALB/c mouse implanted with human A549/T cell assessed as lymphocyte count at 30 mg/kg, ip administered every 2 days and measured after 2 weeks (reference value: […]); format: organism-based; conditions: in vivo, 336 h
A549 [13] = assay: Induction of apoptosis in human A549 cells at 100 nM incubated for 48 hrs by V-FITC/PI staining based flow cytometry analysis relative to control; format: functional
A549/TR [14] = assay: Induction of apoptosis in human A549/T cell at 250 nM incubated for 48 hrs by V-FITC/PI staining based flow cytometry analysis relative to control; format: functional
A549 [15] = assay: Induction of cell cycle arrest in human A549 cells assessed as accumulation of cells at G2/M phase by RNAse A/PI-staining based flow cytometric analysis; format: functional; conditions: dose 25-100 nM
[16] = Toxicity in BALB/c mouse implanted with human A549/T cell assessed as change in body weight at 30 mg/kg, ip administered every 2 days; format: organism-based; conditions: in vivo, 48 h, time 2 day
[17] = Aqueous solubility of the compound […] at pH 7.4 by HPLC analysis; format: physicochemical
[18] = Cytotoxicity against human MCF-10A cells assessed as inhibition of cell growth at 2 nM incubated for 48 hrs by MTT assay relative to control; format: toxicity, cell-based
[19] = Toxicity in BALB/c mouse implanted with human A549/T cell assessed as spleen damage at 15 to 30 mg/kg, ip administered every 2 days by H and E staining based analysis; format: organism-based; conditions: in vivo, 48 h, dose 15-30 mg/kg, time 2 day
[20] = Metabolic stability in human liver microsome assessed as intrinsic clearance measured upto 50 mins by LC-MS/MS analysis; format: ADME; conditions: liver microsomes, read-out: CLH
[21] = Toxicity in BALB/c mouse implanted with human A549/T cell assessed as platelet count at 15 mg/kg, ip administered every 2 days and measured after 2 weeks (reference value: 539 […]); format: organism-based; conditions: in vivo, 336 h
A549/TR [22] = assay: Downregulation of P-gp level in human A549/T cell measured after 48 hrs by immunoblotting analysis; format: functional, cell-based; conditions: dose 62.5-500 nM
[23] = (§1) Inhibition of pig brain tubulin polymerization measured upto 20 mins by absorbance based assay; parameters: species or system Sus scrofa
Sus scrofa = species: Sus scrofa; assay: as §1; conditions: dose 0.4-12 µM
[24] = Toxicity in BALB/c mouse implanted with human A549/T cell assessed as red blood cell distribution width-cell size at 15 mg/kg, ip administered every 2 days and measured after 2 weeks (reference value: 12.1 fL); format: organism-based; conditions: in vivo, 336 h
Tubulin (Homo sapiens) [25] = molecular target: T1, Tubulin (Homo sapiens) (UniProt P68371+Q9H4B7+P0DPH7+P68366+Q13509+Q71U36+P04350+Q3ZCM7+P07437+P68363+Q9BQE3+Q6PEY2+Q13885+Q9BVA1+Q9BUF5); assay: Disruption of microtubule network in human A549/T cell assessed as change in microtubule morphology at 100 to 200 nM incubated for 24 hrs by immunofluorescence staining based confocal microscopy analysis; conditions: dose 100-200 nM
A549/TR [26] = assay: Effect on P-gp protein level in human A549/T cell at 62.5 to 500 nM measured at 12 hrs by immunoblotting analysis; format: functional, cell-based; conditions: dose 62.5-500 nM
[27] = Toxicity in BALB/c mouse implanted with human A549/T cell assessed as RBC count at 15 mg/kg, ip administered every 2 days and measured after 2 weeks (reference value: 7.92 10^12/L); format: organism-based; conditions: in vivo, 336 h
[28] = Toxicity in BALB/c mouse implanted with human A549/T cell assessed as red blood cell distribution width-cell size at 30 mg/kg, ip administered every 2 days and measured after 2 weeks (reference value: 12.1 fL); format: organism-based; conditions: in vivo, 336 h
[29] = Toxicity in BALB/c mouse implanted with human A549/T cell assessed as MCH level at 30 mg/kg, ip administered every 2 days and measured after 2 weeks (reference value: 29.2 pg); format: organism-based; conditions: in vivo, 336 h
A549 [30] = assay: Inhibition of colony formation in human A549 cells incubated for 48 hrs by crystal violet staining based analysis; format: functional, cell-based; conditions: dose 0.1-0.5 µM
A549/TR [31] = assay: Induction of cell cycle arrest in human A549/T cell assessed as accumulation of cells at G2/M phase by RNAse A/PI-staining based flow cytometric analysis; format: functional; conditions: dose 25-100 nM
A549/TR [32] = assay: Antiproliferative activity against human A549/T cell assessed as cell growth inhibition incubated for 48 hrs by MTT assay; format: functional, cell-based
[33] = Toxicity in BALB/c mouse implanted with human A549/T cell assessed as lung damage at 15 to 30 mg/kg, ip administered every 2 days by H and E staining based analysis; format: organism-based; conditions: in vivo, 48 h, dose 15-30 mg/kg, time 2 day
Tubulin (Homo sapiens) [34] = molecular target: T1, Tubulin (Homo sapiens); assay: Disruption of microtubule network in human A549 cells at 50 to 100 nM incubated for 24 hrs by immunofluorescence staining based confocal microscopy analysis; format: cell-based; conditions: dose 50-100 nM

SMILES: COc1ccc(-c2cc(-c3ccc(OC)c(OC)c3OC)c3nc[nH]c3c2)cc1N
- Activity [1]: 5.94 10^12/L
- Activity [2]: 0.425%
- Activity (A549 [3]): 34.2%
- Activity (A549 [4]): inactive
- Activity [5]: 10.5 fL
- Activity [6]: 24 fL
- Activity [7]: 25 fL
- inhibition at 48 h, 0.01 µM [8]: 20%
- Activity [9]: 29.5%
- Activity (A549/TR [10]): Active
- pIC50 (NCI-H1299): 7.20
- Ratio IC50 [11]: 2.47
- pIC50 (HCC827): 7.34
- Activity [12]: 1.32 10^9/L
- Activity (A549 [13]): 44.42%
- Activity (A549/TR [14]): 68.13%
- Activity (A549 [15]): Dose-dependent-effect
- Activity [16]: Non-toxic
- solubility [17]: 20.8 µg/mL (≈ 51.3 µM)
- inhibition at 48 h, 0.002 µM [18]: 1%
- Activity [19]: Non-toxic
- CLint scaled [20]: 23 mL/min/kg
- Activity [21]: 505 10^9/L
- Activity (A549/TR [22]): Dose-dependent-effect
- pIC50 [23]: 5.74
- inhibition (Sus scrofa): Dose-dependent-effect
- Activity [24]: 12.1 fL
- Activity (Tubulin (Homo sapiens) [25]): Active
- Activity (A549/TR [26]): inactive
- Activity [27]: 7.43 10^12/L
- Activity [28]: 12.3 fL
- Activity [29]: 31.6 pg
- inhibition (A549 [30]): Dose-dependent-effect
- Activity (A549/TR [31]): Dose-dependent-effect
- pIC50 (A549/TR [32]): 7.24
- Activity [33]: Non-toxic
- Activity (Tubulin (Homo sapiens) [34]): Active
